Measured values as given in PMC12040169 (PLOS Biology, 2025).

Assay: in vitro
Settings: human, hela cells, % viability
In the case of `CN1CC(=O)N(CC(=O)N2CC=C(c3ccccc3)CC2)c2ccccc2C1=O` [CBK294433], the viability at 28.5 h, 10 µM is reported as 88%.
In the case of `Cc1ccc(NC(=O)C2CC(=O)Nc3nc(SCc4ccccc4C)[nH]c(=O)c32)c(C)c1` (centres unmarked) [CBK294438], the viability at 28.5 h, 10 µM is reported as 91%.
Compound `CCCCOc1ccccc1C1CC(=O)Nc2c(-c3ccccc3F)csc21` (centres unmarked) [CBK294439] has a viability at 28.5 h, 10 µM of 81%.
Compound `CC(C)CCNC(=O)c1cccc(-n2c(=S)[nH]c3cc(Cl)ccc3c2=O)c1` [CBK294444] has a viability at 28.5 h, 10 µM of 107%.
Compound `O=C(CCCn1nnc2ccccc2c1=O)NCc1cccc(Cl)c1` [CBK294446] has a viability at 28.5 h, 10 µM of 82.8%.
`Cc1ccc(-n2ncc3c(Nc4c(C)n(C)n(-c5ccccc5)c4=O)ncnc32)c(C)c1` [CBK294449] showed a viability at 28.5 h, 10 µM of 82.6%.
With `O=C(c1ccc(S(=O)(=O)c2ccc(F)cc2)c([N+](=O)[O-])c1)N1CCCCCC1` [CBK294453] the viability at 28.5 h, 10 µM was 78.3%.
With `O=C(CCNC(=O)c1ccc(Br)o1)NCc1ccccc1Cl` [CBK294454] the viability at 28.5 h, 10 µM was 81.5%.
`O=C(O)c1[nH]c2ccccc2c1/C=N/Cc1ccccc1Cl` [CBK294456] gave a viability at 28.5 h, 10 µM of 98.7%.
With `COc1ccccc1CNC(=O)c1cc(-c2ccccc2)nc2ccccc12` [CBK294458] the viability at 28.5 h, 10 µM was 104%.
Compound `CSc1cccc(NC(=S)N2CCC(N(C)C(C)C)CC2)c1` [CBK294463] has a viability at 28.5 h, 10 µM of 86.8%.
With `O=C(NC1CCCC1)c1cc(=O)n(Cc2ccc(Cl)cc2)c2ccccc12` [CBK294464] the viability at 28.5 h, 10 µM was 104%.
With `COc1ccc(-c2cc(C(=O)NC(C)c3ccccc3)c3cc(C(C)C)ccc3n2)cc1` (centres unmarked) [CBK294466] the viability at 28.5 h, 10 µM was 101%.
Compound `Cc1ccc(CNC(=O)C2CCN(S(=O)(=O)N3CCOCC3)CC2)cc1` [CBK294467] has a viability at 28.5 h, 10 µM of 103%.
For `CCC1CCC2(CC1)NC(=O)N(Cc1cc(-c3ccccc3)on1)C2=O` (centres unmarked) [CBK294977], the viability at 28.5 h, 10 µM was 90.1%.
For `COc1ccc2cc(CNc3ccc(F)c([N+](=O)[O-])c3)c(Cl)nc2c1` [CBK295133], the viability at 28.5 h, 10 µM was 93.1%.
In the case of `CC(C)NC(=O)c1cccc2c1CCCN2Cc1nc2ccccc2o1` [CBK295135], the viability at 28.5 h, 10 µM is reported as 101%.
For `COc1ccc2c(CC(=O)Nc3sccc3C(N)=O)coc2c1` [CBK295137], the viability at 28.5 h, 10 µM was 101%.
With `COc1ccc(O)c(C(=O)c2cnn(-c3ccccn3)c2)c1` [CBK295141] the viability at 28.5 h, 10 µM was 97.9%.
Work on `O=c1[nH]nc(SCc2csc(COc3ccc(Cl)cc3)n2)n1C1CC1` [CBK295146] yielded a viability at 28.5 h, 10 µM of 87.9%.
`COc1ccc(NS(=O)(=O)c2cc(C(=O)O)cc(C)c2C)cc1OC` [CBK295148] gave a viability at 28.5 h, 10 µM of 82.9%.
Compound `COc1ccc2c(CC(=O)Nc3cccc(-c4csc(C)n4)c3)coc2c1` [CBK295149] has a viability at 28.5 h, 10 µM of 94%.
With `Cn1cnnc1SCC(=O)Nc1c(F)cccc1F` [CBK295150] the viability at 28.5 h, 10 µM was 88.2%.
`O=C(c1ccccn1)N(CCc1ccccc1)c1nc2ccccc2s1` [CBK295151] showed a viability at 28.5 h, 10 µM of 97.5%.
`CC(NCC(=O)N1c2ccccc2NC(=O)CC1C)c1ccc(-c2ccccc2)cc1` (centres unmarked) [CBK295155] gave a viability at 28.5 h, 10 µM of 84.2%.
In the case of `C=CCOc1ccc(CN(C)Cc2nc3cc(C(=O)O)ccc3c(=O)[nH]2)cc1` [CBK295156], the viability at 28.5 h, 10 µM is reported as 101%.
`CC(NCc1nc(=O)c2sccc2[nH]1)c1ccc2c(c1)OCCO2` (centres unmarked) [CBK295157] showed a viability at 28.5 h, 10 µM of 88.4%.
`Cc1ccc(C(=O)NC(C)c2nc3ccccc3n2Cc2ccc(C(=O)O)o2)cc1` (centres unmarked) [CBK295159] gave a viability at 28.5 h, 10 µM of 107%.
Work on `O=C(CSc1nnnn1CC1CCCO1)N1CC=C(c2ccccc2)CC1` (centres unmarked) [CBK295160] yielded a viability at 28.5 h, 10 µM of 82%.
Work on `CCN(CC)S(=O)(=O)c1ccc2c(c1)CCCN2C(=O)c1ccc(C#N)cc1` [CBK295161] yielded a viability at 28.5 h, 10 µM of 85.9%.
In the case of `CC(=O)Nc1ccc(NS(=O)(=O)c2ccc(C)c(C(=O)O)c2)cc1` [CBK295162], the viability at 28.5 h, 10 µM is reported as 85.9%.
`Cc1cc(C)cc(-c2nnc(SCCC(=O)NC(N)=O)o2)c1` [CBK295164] gave a viability at 28.5 h, 10 µM of 107%.
`CCOC(=O)C1CCN(Cn2nc(-c3cccs3)oc2=S)CC1` [CBK295165] gave a viability at 28.5 h, 10 µM of 85.9%.
In the case of `CC(C)c1nn(CN(C)Cc2ccccc2)c(=S)[nH]1` [CBK295166], the viability at 28.5 h, 10 µM is reported as 102%.
`O=C(NCc1cn2ccccc2n1)c1ccc(C2SCCS2)cc1` [CBK295167] gave a viability at 28.5 h, 10 µM of 83.5%.
